Reference: article PMC6150216, “Oleanane-Type Saponins from the Roots of Ligulariopsis shichuana and Their α-Glucosidase Inhibitory Activities” (Molecules : A Journal of Synthetic Chemistry and Natural …, 2017)
“Also recorded” adds a separate entry of the source.

How the values were obtained:
[1] = tested on: glucose-loaded rats; parameters: method as in PMID 11237187; details: cited from earlier work
[2] = molecular target: yeast α-glucosidase; experiment: α-Glucosidase inhibitory activity assay; format: biochemical; details: for IC50: compound concentration that inhibits α-glucosidase activity by 50%, acarbose positive control, read-out: IC50 against α-glucosidase; for α-glucosidase inhibitory activity (in words): qualitative statement
Source text: α-Glucosidase inhibitory activity was examined by the method described by Omar et al..

## COC(=O)[C@H]1O[C@@H](O[C@H]2CC[C@]3(C)[C@H]4CC=C5[C@@H]6CC(C)(C)CC[C@]6(C(=O)O)CC[C@@]5(C)[C@]4(C)CC[C@H]3C2(C)C)[C@H](O)[C@@H](O)[C@@H]1O [Compound 8, calenduloside E 6′-methyl ester]
[1]
  effect on the incensement of serum glucose levels: significant effects
[2]
  IC50: 134 ± 3.3 µM

## COC(=O)[C@H]1O[C@@H](O[C@H]2CC[C@]3(C)[C@H]4CC=C5[C@@H]6CC(C)(C)CC[C@]6(CO)[C@@H](O)C[C@@]5(C)[C@]4(C)CC[C@H]3C2(C)C)[C@H](O)[C@@H](O)[C@@H]1O [Compound 5, Ligushicoside E]
[2]
  IC50: 154 ± 11.2 µM

## COC(=O)[C@H]1O[C@@H](O[C@H]2CC[C@]3(C)[C@H]4CC=C5[C@@H]6CC(C)(C)CC[C@]6(C)[C@@H](O)C[C@@]5(C)[C@]4(C)C[C@@H](O)[C@H]3C2(C)C)[C@H](O)[C@@H](O)[C@@H]1O [Compound 3, Ligushicoside C]
[2]
  IC50: 105 ± 4.3 µM

## CC1(C)CC[C@]2(CO)[C@@H](O)C[C@]3(C)C(=CC[C@@H]4[C@@]5(C)CC[C@H](O[C@@H]6O[C@H](C(=O)O)[C@@H](O)[C@H](O)[C@H]6O)C(C)(C)[C@@H]5CC[C@]43C)[C@@H]2C1 [Compound 6, longispinogenin 3-O-β-D-glucuronopyranoside]
[2]
  IC50: 42.6 ± 5.9 µM

## COC(=O)[C@H]1O[C@@H](O[C@H]2CC[C@]3(C)[C@H]4CC=C5[C@@H]6CC(C)(C)CC[C@]6(C=O)[C@@H](O)C[C@@]5(C)[C@]4(C)CC[C@H]3C2(C)C)[C@H](O)[C@@H](O)[C@@H]1O [Compound 2, Ligushicoside B]
[2]
  IC50: 37.9 ± 3.6 µM
  α-glucosidase inhibitory activity (in words): excellent inhibitory activities; also recorded: excellent inhibitory activity

## CC1(C)CC[C@]2(C=O)[C@@H](O)C[C@]3(C)C(=CC[C@@H]4[C@@]5(C)CC[C@H](O[C@@H]6O[C@H](C(=O)O)[C@@H](O)[C@H](O)[C@H]6O)C(C)(C)[C@@H]5CC[C@]43C)[C@@H]2C1 [Compound 1, Ligushicoside A]
[2]
  IC50: 18.7 ± 1.7 µM
  α-glucosidase inhibitory activity (in words): excellent inhibitory activities; also recorded: excellent inhibitory activity

## COC(=O)[C@H]1O[C@@H](O[C@H]2CC[C@]3(C)[C@H]4CC=C5[C@@H]6CC(C)(C)CC[C@]6(CO)[C@@H](O)C[C@@]5(C)[C@]4(C)C[C@@H](O)[C@H]3C2(C)C)[C@H](O)[C@@H](O)[C@@H]1O [Compound 4, Ligushicoside D]
[2]
  IC50: 89.7 ± 5.1 µM

## CC1(C)CC[C@]2(C(=O)O)CC[C@]3(C)C(=CC[C@@H]4[C@@]5(C)CC[C@H](O[C@@H]6O[C@H](C(=O)O)[C@@H](O)[C@H](O)[C@H]6O)C(C)(C)[C@@H]5CC[C@]43C)[C@@H]2C1 [Compound 7, calenduloside E]
[1]
  effect on the incensement of serum glucose levels: significant effects; also recorded: strongly inhibited
[2]
  IC50: 57.6 ± 6.8 µM
